The subject of test [1] is astroglial cells exposed to supernatant of HIV-infected macrophages. As to the kind of experiment: Ultrastructural studies (electron microscopy) of astroglial cells. The test is classed as cell-based, human. The following applies: co-incubation, AZT 50 μM; for pro-apoptotic effect of supernatant of HIV-infected M/M on astroglial cell ultrastructure: M40401 10-100 μM, L-NAME 100 μM. As to the method: (§1) The astrocytic cell line Lipari was derived from a patient who presented a large right front-temporal mass (astrocytoma), and grown as previously described (Mollace, V., Colasanti, M., Rodinò, P., Lauro, G. M. & Nisticò, G. (1994b). Biochem. Biophys. Res. Commun. 203, 87-92.). Cells were expanded and cultured by seeding them in 25cm plastic flasks at a density of 0.7×10^6 cells/flask in complete medium, and incubated at 37° C. in humidified air containing 5% CO2.
(§2) A monocytotropic strain of HIV-1, named HIV-1Ba-L was used in all experiments. M/M cultures were exposed to HIV and virus expansion was performed. After 2 hours, virus was removed by washing cultures with warm medium and then cultures of M/M infected by HIV were carried out for further 13-15 days.
(§3) The supernatant of HIV-infected M/M was collected 13 days after virus infection and then incubated for 3 hours with cultured astrocytes. The supernatant of Mock-infected M/M was used as control treatment. […] HIV-p24 antigen production in supernatants of M/M was assesed using a commercially available ELISA Kit (HIV-p24 gag Abbott Lab, Pomezia, Italy).
Cells for electron microscopy were fixed in 2.5% glutaraldehyde in PBS pH7.4 at 4° C. and then washed for 2 hours in PBS and post fixed in osmium tetroxide 1,33% for 2 hours at 4° C. After several washes in PBS, the cells were dehydrated in graded alcohol, transferred into toluene, and embedded in Epon 812 resin. The resin was allowed to polymerize in a dry oven at 60° C. for 24 hours. Thin sections were cut with a glass knife Reichert microtome, stained with Touloidine Blue and examined on Axioscope microscope. Ultra-thin sections were cut on a Reichert microtome using a diamond knife, stained with uranyl-acetate-lead-hydroxide and evaluated and photographed on a Philips electron microscope CM 10 (Philips).

Test [2] relates to astroglial cells incubated with supernatants of HIV-infected macrophages. As to the kind of experiment: Malondialdehyde (MDA) in astroglial cells incubated with supernatants of HIV-infected macrophages. The following applies: M40401 100 μM, L-NAME 100 μM, AZT 50 μM, MDA in nmol g-1. The format is cell-based, human. As for the experimental part: as §1, §2, §3
For test [3] the following is noted: same conditions (pH=7.4 and 21° C.); cited from earlier work.
A short description of test [4]: Reaction with hydrogen peroxide (spectrophotometric or cyclic voltammetric monitoring). The format is biochemical. The following applies: spectrophotometric or electrochemical (cyclic voltammetric) techniques.
Test [5] can be described thus: Catalytic catalase activity assay using oxygen electrodes. The format is biochemical. The following applies: total oxygen evolved.
Test [6] concerns Lipari astroglial cell line incubated with supernatant of HIV-1 infected macrophages. The test is described as follows: FACS analysis of apoptotic cell death of astrocytes exposed to supernatant of HIV-infected macrophages. The format is cell-based, human. The following applies: M40401 10-100 μM, L-NAME 100 μM, AZT 50 μM. As for the experimental part: as §1, §2
The supernatant of HIV-infected M/M was collected 13 days after virus infection and then incubated for 3 hours with cultured astrocytes. The supernatant of Mock-infected M/M was used as control treatment. […]
The astrocytic cells either treated or untreated with supernatants of HIV-infected macrophages were gently detached from plastic 8 days after exposure. […] Propidium iodide-stained cells were analysed with a FACScan Flow Cytometer; fluorescence was measured between 565 and 605nm. The data were acquired and analysed by the Lysis II program.

Regarding `Cc1cn([C@H]2C[C@H](N=[N+]=[N-])[C@@H](CO)O2)c(=O)[nH]c1=O` [AZT], the “pro-apoptotic effect of HIV-infected macrophages on astroglial cell ultrastructure” value in test [1] (FIG. 5, M40401 100 μM) is “failed to inhibit”. Further, the “pro-apoptotic effect of supernatant of HIV-infected M/M on astroglial cell ultrastructure” value in test [1] was “failed to inhibit”. The “MDA overproduction (lipid peroxydation)” value in test [2] is recorded as “failed to antagonize”.
Consider `[Cl-].[Cl-].[Mn+2].c1cc2nc(c1)CN[C@@H]1CCCC[C@H]1NCCN[C@@H]1CCCC[C@H]1NC2` [M40403], for which the “reaction with hydrogen peroxide” value in test [3] is “do not react”. Besides, the “stoichiometric reaction with H2O2” value in test [4] is “no stoichiometric reaction is observed”. In addition, the “catalytic catalase activity with H2O2” value in test [5] was “no catalytic activity is observed”.
For the molecule `COC(=O)[C@@H](N)CCCNC(=N)N[N+](=O)[O-]` [L-NAME], the “pro-apoptotic effect of supernatant of HIV-infected M/M on astroglial cell ultrastructure” value in test [1] is “failed to inhibit”. Further, in test [2], the “MDA overproduction (lipid peroxydation)” value is recorded as “failed to antagonize”. Moreover, the “apoptotic cell death of astroglial cells as evaluated by FACS analysis” value in test [6] is reported as “failed to modify”.
